Where “and” joins values, the source holds several entries; their conditions need not be identical. Equal values may be shown once. Inconclusive results and toxic doses are left out. The calls were made as follows: active = survival T/C of 150% or more; inactive = T/C below 125% in these data.
Test system: P388 leukemia ip, CD2F1 mice, survival T/C
Assay: NCI In Vivo Anticancer Drug Screen. Data for tumor model P388 Leukemia (intraperitoneal) in CD2F1 (CDF1) mice
Details: endpoint: median survival time, higher = longer survival
In short: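 Mice carrying the transplanted tumor received test compound or vehicle. Survival was recorded in each group, and the value is the treated-group measurement divided by that of the vehicle-treated control group.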

[1] = dose: 60.0 mg/kg/injection, schedule: Q01DX005 (ip), vehicle: saline with Tween-80
[2] = dose: 120.0 mg/kg/injection, schedule: Q01DX005 (ip), vehicle: saline with Tween-80
[3] = dose: 50.0 mg/kg/injection, schedule: Q01DX009 (ip), vehicle: saline with Tween-80
[4] = dose: 100.0 mg/kg/injection, schedule: Q01DX009 (ip), vehicle: saline with Tween-80
[5] = dose: 200.0 mg/kg/injection, schedule: Q01DX009 (ip), vehicle: saline with Tween-80
[6] = dose: 50.0 mg/kg/injection, schedule: Q01DX009 (ip), vehicle: Klucel (hydroxypropylcellulose) (HPC)
[7] = dose: 100.0 mg/kg/injection, schedule: Q04DX003 (ip), vehicle: Klucel (hydroxypropylcellulose) (HPC)
[8] = dose: 200.0 mg/kg/injection, schedule: Q04DX003 (ip), vehicle: Klucel (hydroxypropylcellulose) (HPC)
[9] = dose: 50.0 mg/kg/injection, schedule: Q01DX005 (ip), vehicle: Klucel (hydroxypropylcellulose) (HPC)
[10] = dose: 100.0 mg/kg/injection, schedule: Q01DX005 (ip), vehicle: Klucel (hydroxypropylcellulose) (HPC)
[11] = dose: 50.0 mg/kg/injection, schedule: Q01DX005 (ip), vehicle: saline with Tween-80
[12] = dose: 100.0 mg/kg/injection, schedule: Q01DX005 (ip), vehicle: saline with Tween-80
[13] = dose: 60.0 mg/kg/injection, schedule: Q01DX005 (ip), vehicle: Klucel (hydroxypropylcellulose) (HPC)
[14] = dose: 120.0 mg/kg/injection, schedule: Q01DX005 (ip), vehicle: Klucel (hydroxypropylcellulose) (HPC)
[15] = dose: 200.0 mg/kg/injection, schedule: Q01DX005 (ip), vehicle: Klucel (hydroxypropylcellulose) (HPC)
[16] = dose: 240.0 mg/kg/injection, schedule: Q01DX005 (ip), vehicle: Klucel (hydroxypropylcellulose) (HPC)
[17] = dose: 100.0 mg/kg/injection, schedule: Q04DX003 (ip), vehicle: other
[18] = dose: 200.0 mg/kg/injection, schedule: Q04DX003 (ip), vehicle: other

Measured: T/C

O=S(=O)(c1ccccn1)c1nc2ccccc2s1
inactive: [1] 94 % of control | [2] 90 % of control | dose: 240.0 mg/kg/injection, schedule: Q01DX005 (ip), vehicle: saline with Tween-80 94 % of control

COC1=Nc2ccccc2S(=O)(=O)C=C1
inactive: dose: 15.0 mg/kg/injection, schedule: Q01DX005 (ip), vehicle: saline with Tween-80 101 % of control | dose: 30.0 mg/kg/injection, schedule: Q01DX005 (ip), vehicle: saline with Tween-80 104 % of control | [1] 116 % of control and 119 % of control

O=C1c2ccccc2C(=O)C1(c1ccccn1)[N+](=O)[O-]
inactive: [1] 110 % of control | [2] 113 % of control

CCCCCCCC#CC(=O)O
inactive: [3] 88 % of control | [4] 89 % of control | [5] 86 % of control

S=C(Cl)N1CCN(C(=S)Cl)CC1
inactive: dose: 12.5 mg/kg/injection, schedule: Q01DX009 (ip), vehicle: Klucel (hydroxypropylcellulose) (HPC) 104 % of control | dose: 25.0 mg/kg/injection, schedule: Q01DX009 (ip), vehicle: Klucel (hydroxypropylcellulose) (HPC) 112 % of control | [6] 110 % of control and 93 % of control

S=c1sc2cccnc2s1
inactive: dose: 12.5 mg/kg/injection, schedule: Q01DX009 (ip), vehicle: saline with Tween-80 99 % of control | dose: 25.0 mg/kg/injection, schedule: Q01DX009 (ip), vehicle: saline with Tween-80 100 % of control | [3] 104 % of control and 111 % of control

CN1C(=O)C(=O)N2c3ccc(Cl)cc3C3(c4ccccc4)N=CC12O3 (stereo not drawn)
inactive: [7] 109 % of control | [8] 112 % of control | dose: 400.0 mg/kg/injection, schedule: Q04DX003 (ip), vehicle: Klucel (hydroxypropylcellulose) (HPC) 113 % of control

O=C1/C(=C/c2cccc([N+](=O)[O-])c2)SC(=S)N1C1CC1
inactive: [9] 89 % of control | [10] 89 % of control

CCC(/C=C/c1ccccc1)=N\Nc1ccccc1
inactive: [11] 104 % of control | [12] 105 % of control | dose: 200.0 mg/kg/injection, schedule: Q01DX005 (ip), vehicle: saline with Tween-80 104 % of control | dose: 400.0 mg/kg/injection, schedule: Q01DX005 (ip), vehicle: saline with Tween-80 98 % of control

CCCCCCCCC1(O)OC(=O)C(C)=C1C (stereo not drawn)
inactive: dose: 12.5 mg/kg/injection, schedule: Q04DX003 (ip), vehicle: saline with Tween-80 100 % of control | dose: 25.0 mg/kg/injection, schedule: Q04DX003 (ip), vehicle: saline with Tween-80 100 % of control | dose: 50.0 mg/kg/injection, schedule: Q04DX003 (ip), vehicle: saline with Tween-80 103 % of control

CCCCCC(CN(C)C)/C(CC(NO)c1ccccc1)=N\O (stereo not drawn)
inactive: [6] 106 % of control | dose: 100.0 mg/kg/injection, schedule: Q01DX009 (ip), vehicle: Klucel (hydroxypropylcellulose) (HPC) 106 % of control

Cc1ccc2c(c1)nc1cc3c(cc1n2C1CCCCC1)c(Cl)c(=O)c1ccccc13
inactive: [3] 92 % of control | [4] 92 % of control | [5] 98 % of control

O=S1(=O)C=C(Cl)C1
inactive: [11] 110 % of control | [12] 96 % of control

COC1=CC(=O)C2CC=C(C)C3CC(=O)OC1C23C (stereo not drawn)
inactive: dose: 100.0 mg/kg/injection, schedule: Q04DX002 (ip), vehicle: Klucel (hydroxypropylcellulose) (HPC) 100 % of control | dose: 200.0 mg/kg/injection, schedule: Q04DX002 (ip), vehicle: Klucel (hydroxypropylcellulose) (HPC) 95 % of control | dose: 400.0 mg/kg/injection, schedule: Q04DX002 (ip), vehicle: Klucel (hydroxypropylcellulose) (HPC) 98 % of control

COC1OCCC(n2c(C)cc3c(N)ncnc32)C1O (stereo not drawn)
inactive: [9] 101 % of control and 102 % of control | [13] 100 % of control | [10] 100 % of control and 103 % of control | [14] 103 % of control | [15] 93 % of control | [16] 96 % of control

N#C/C(=N\Nc1ccccc1)C(N)=S
inactive: dose: 12.5 mg/kg/injection, schedule: Q01DX009 (ip), vehicle: other 109 % of control | dose: 25.0 mg/kg/injection, schedule: Q01DX009 (ip), vehicle: other 93 % of control | dose: 50.0 mg/kg/injection, schedule: Q01DX009 (ip), vehicle: other 91 % of control

O=[Se](=O)(O)O
inactive: dose: 1.88 mg/kg/injection, schedule: Q01DX005 (ip), vehicle: saline 103 % of control | dose: 3.75 mg/kg/injection, schedule: Q01DX005 (ip), vehicle: saline 109 % of control and 99 % of control | dose: 7.5 mg/kg/injection, schedule: Q01DX005 (ip), vehicle: saline 113 % of control and 101 % of control | dose: 15.0 mg/kg/injection, schedule: Q01DX005 (ip), vehicle: saline 86 % of control and 98 % of control

CCC(=O)/C=C/c1ccc(N(C)C)cc1
inactive: [7] 93 % of control | [8] 89 % of control

CC(=O)N1CCCC2=C1CCCCCC2
inactive: dose: 12.5 mg/kg/injection, schedule: Q04DX003 (ip), vehicle: saline 99 % of control | dose: 25.0 mg/kg/injection, schedule: Q04DX003 (ip), vehicle: saline 104 % of control | dose: 50.0 mg/kg/injection, schedule: Q04DX003 (ip), vehicle: saline 104 % of control | dose: 100.0 mg/kg/injection, schedule: Q04DX003 (ip), vehicle: saline 117 % of control | dose: 200.0 mg/kg/injection, schedule: Q04DX003 (ip), vehicle: saline 101 % of control | dose: 400.0 mg/kg/injection, schedule: Q04DX003 (ip), vehicle: saline 100 % of control

CCN(CC)CCNC(=O)c1nn(-c2ccccc2)c2c1CCCc1ccccc1-2
inactive: dose: 25.0 mg/kg/injection, schedule: Q04DX003 (ip), vehicle: Klucel (hydroxypropylcellulose) (HPC) 101 % of control | dose: 50.0 mg/kg/injection, schedule: Q04DX003 (ip), vehicle: Klucel (hydroxypropylcellulose) (HPC) 101 % of control | [7] 99 % of control and 92 % of control

CCN1CCn2c(c(COC(=O)NC(C)C)c(COC(=O)NC(C)C)c2-c2ccc(Cl)c(Cl)c2)C1
inactive: dose: 6.25 mg/kg/injection, schedule: Q01DX009 (ip), vehicle: distilled water + Tween-80 116 % of control | dose: 12.5 mg/kg/injection, schedule: Q01DX009 (ip), vehicle: distilled water + Tween-80 122 % of control | dose: 18.8 mg/kg/injection, schedule: Q01DX009 (ip), vehicle: distilled water + Tween-80 97 % of control | dose: 25.0 mg/kg/injection, schedule: Q01DX009 (ip), vehicle: distilled water + Tween-80 116 % of control | dose: 37.5 mg/kg/injection, schedule: Q01DX009 (ip), vehicle: distilled water + Tween-80 114 % of control

O=S(c1ccccc1)c1c(Cl)c(Cl)nc(Cl)c1Cl (stereo not drawn)
inactive: dose: 22.0 mg/kg/injection, schedule: Q01DX009 (ip), vehicle: saline with Tween-80 100 % of control and 113 % of control | dose: 33.0 mg/kg/injection, schedule: Q01DX009 (ip), vehicle: saline with Tween-80 109 % of control

COc1ccc(/C=C(/C#N)c2ccccc2)cc1
inactive: [17] 100 % of control | [18] 100 % of control | dose: 400.0 mg/kg/injection, schedule: Q04DX003 (ip), vehicle: other 104 % of control

O=C1OC(c2ccccc2)=N/C1=C\c1ccc(Br)cc1
inactive: [9] 93 % of control | [10] 87 % of control and 95 % of control | [15] 87 % of control

O=C(c1ccc(OCC(O)CN2CCN(c3ccccc3)CC2)cc1)c1cc2ccccc2c2ccccc12 (stereo not drawn)
inactive: dose: 100.0 mg/kg/injection, schedule: Q04DX003 (ip), vehicle: alcohol 106 % of control | [17] 109 % of control | dose: 200.0 mg/kg/injection, schedule: Q04DX003 (ip), vehicle: alcohol 120 % of control | [18] 105 % of control

CNC(=O)Oc1ccc(/C=N/Sc2cccc([N+](=O)[O-])c2)cc1
inactive: [3] 101 % of control | [4] 89 % of control

COC(=O)C1(C(=O)OC)O[C@@H](c2ccccc2)[C@H]2C(=O)N(C)C(=O)[C@H]21
inactive: [13] 99 % of control | [14] 101 % of control | [16] 110 % of control

CC(C)Nc1ncnc2[nH]ncc12
inactive: dose: 16.0 mg/kg/injection, schedule: Q01DX009 (ip), vehicle: Klucel (hydroxypropylcellulose) (HPC) 101 % of control | dose: 32.0 mg/kg/injection, schedule: Q01DX009 (ip), vehicle: Klucel (hydroxypropylcellulose) (HPC) 97 % of control | dose: 64.0 mg/kg/injection, schedule: Q01DX009 (ip), vehicle: Klucel (hydroxypropylcellulose) (HPC) 87 % of control

Source: PubChem BioAssay AID330 (DTP/NCI, 2004)
